From ChEMBL document CHEMBL1201862, “PubChem BioAssay data set” (2004)
Activity calls are given as the source filed them.

How the values were obtained:
Protein RecA = biological target: T1, Protein RecA (Mycobacterium tuberculosis, UniProt P9WHJ3); assay: Fluorescence Cell-Free Homogeneous Dose Retest to Identify Inhibitors of RecA-Intein Splicing Activity. [Related pubchem assays (depositor defined):AID2097, AID2223, AID489010, AID492950]; format: functional
T1 sequence (P9WHJ3 whole entry): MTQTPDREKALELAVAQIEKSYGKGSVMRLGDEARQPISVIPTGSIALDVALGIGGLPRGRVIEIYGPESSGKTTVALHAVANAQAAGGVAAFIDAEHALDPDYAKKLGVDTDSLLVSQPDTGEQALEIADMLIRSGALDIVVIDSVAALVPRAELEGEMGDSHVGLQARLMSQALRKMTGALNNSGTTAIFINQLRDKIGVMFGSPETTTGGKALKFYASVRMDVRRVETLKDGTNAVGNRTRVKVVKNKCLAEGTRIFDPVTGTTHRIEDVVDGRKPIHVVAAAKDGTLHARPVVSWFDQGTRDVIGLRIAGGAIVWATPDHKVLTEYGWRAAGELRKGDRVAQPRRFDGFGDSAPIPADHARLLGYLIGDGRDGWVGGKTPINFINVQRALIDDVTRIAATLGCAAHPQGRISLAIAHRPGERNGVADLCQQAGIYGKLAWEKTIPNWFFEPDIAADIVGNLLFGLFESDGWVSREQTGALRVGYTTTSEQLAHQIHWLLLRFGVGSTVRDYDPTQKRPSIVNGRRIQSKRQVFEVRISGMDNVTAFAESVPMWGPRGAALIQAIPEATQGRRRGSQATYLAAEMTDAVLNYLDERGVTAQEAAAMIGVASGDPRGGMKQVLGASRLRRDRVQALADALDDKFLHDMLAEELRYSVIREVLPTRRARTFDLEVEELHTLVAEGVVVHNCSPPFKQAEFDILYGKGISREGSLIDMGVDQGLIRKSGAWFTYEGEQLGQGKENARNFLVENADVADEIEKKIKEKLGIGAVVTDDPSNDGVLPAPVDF

[1] = growth suppression of beta-catenin-knockout colon cells, dose response, cell-based, HCT116, human colon tumor (AID 1045); format: functional;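 also: HCT116 colon tumor cells with beta catenin knocked out; cells exposed to compound for 60 hours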
[2] = growth suppression of PTEN-null colon cells, dose response, cell-based, HCT116 PTEN knockout (AID 1047); format: functional;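 also: HCT116 colon tumor cells with PTEN knocked out; cells exposed to compound for 60 hours before readout; potency for loss of cell viability measured by luminescence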
[3] = biological target: Sphingosine 1-phosphate receptor 2 (Homo sapiens, UniProt O95136); assay: Dose Response Cell Based Assay for Agonists of the S1P2 Receptor. [Related pubchem assays: 729, 736, 843 ]; format: functional
[4] = M. tuberculosis H37Rv growth inhibitors, H37Rv strain (AID 1626); format: functional
[5] = biological target: T2, RNA-binding protein pos-1 (Caenorhabditis elegans, UniProt G5EF15); assay: inhibitors of POS-1/mex-3 RNA binding, dose response, biochemical, fluorescence polarization (AID 1964);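 also: purified POS-1 fused to maltose binding protein made in E. coli; potency of compounds blocking POS-1 binding to fluorescent RNA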
T2 sequence (G5EF15 whole entry): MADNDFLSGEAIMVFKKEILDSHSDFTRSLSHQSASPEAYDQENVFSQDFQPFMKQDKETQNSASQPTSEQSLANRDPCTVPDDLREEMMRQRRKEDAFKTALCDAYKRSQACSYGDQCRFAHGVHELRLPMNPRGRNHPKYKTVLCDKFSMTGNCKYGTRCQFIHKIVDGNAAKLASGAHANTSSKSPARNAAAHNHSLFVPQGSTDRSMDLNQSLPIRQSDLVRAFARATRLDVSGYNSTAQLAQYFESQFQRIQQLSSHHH

[6] = biological target: T3, Zinc finger protein mex-5 (Caenorhabditis elegans, UniProt Q9XUB2); assay: MEX-5/TCR-2 RNA interaction inhibitors, dose response, biochemical, C. elegans, fluorescence polarization (AID 1960)
T3 sequence (Q9XUB2 whole entry): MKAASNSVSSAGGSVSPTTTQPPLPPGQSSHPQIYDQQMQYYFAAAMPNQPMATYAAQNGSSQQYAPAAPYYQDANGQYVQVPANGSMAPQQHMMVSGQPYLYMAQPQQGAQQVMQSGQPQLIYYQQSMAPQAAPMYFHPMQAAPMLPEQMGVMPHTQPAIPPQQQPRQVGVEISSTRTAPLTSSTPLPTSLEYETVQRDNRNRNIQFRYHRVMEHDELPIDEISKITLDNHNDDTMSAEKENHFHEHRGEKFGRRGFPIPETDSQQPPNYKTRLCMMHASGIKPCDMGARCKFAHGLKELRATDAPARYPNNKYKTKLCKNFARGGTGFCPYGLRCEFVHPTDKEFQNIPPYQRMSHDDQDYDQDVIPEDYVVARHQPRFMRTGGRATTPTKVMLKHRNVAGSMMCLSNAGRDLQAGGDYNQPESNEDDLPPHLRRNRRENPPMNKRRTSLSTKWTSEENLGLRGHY

[7] = inhibitors of Bluetongue virus cytopathic effect, confirmation, arbovirus, BSR cells (AID 1250); format: functional;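 also: protection from viral cytopathic effect measured as cell viability by ATP luminescence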
[8] = biological target: FAD-linked sulfhydryl oxidase ALR (Homo sapiens, UniProt P55789); assay: inhibitors of human ALR sulfhydryl oxidase, dose response, biochemical, H2O2 detection, luminescence, cherry-pick (AID 493248)
Estrogen receptor = biological target: T4, Estrogen receptor (Homo sapiens, UniProt P03372);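 also: potency for inhibiting coactivator peptide recruitment to the receptor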
T4 sequence (P03372 whole entry): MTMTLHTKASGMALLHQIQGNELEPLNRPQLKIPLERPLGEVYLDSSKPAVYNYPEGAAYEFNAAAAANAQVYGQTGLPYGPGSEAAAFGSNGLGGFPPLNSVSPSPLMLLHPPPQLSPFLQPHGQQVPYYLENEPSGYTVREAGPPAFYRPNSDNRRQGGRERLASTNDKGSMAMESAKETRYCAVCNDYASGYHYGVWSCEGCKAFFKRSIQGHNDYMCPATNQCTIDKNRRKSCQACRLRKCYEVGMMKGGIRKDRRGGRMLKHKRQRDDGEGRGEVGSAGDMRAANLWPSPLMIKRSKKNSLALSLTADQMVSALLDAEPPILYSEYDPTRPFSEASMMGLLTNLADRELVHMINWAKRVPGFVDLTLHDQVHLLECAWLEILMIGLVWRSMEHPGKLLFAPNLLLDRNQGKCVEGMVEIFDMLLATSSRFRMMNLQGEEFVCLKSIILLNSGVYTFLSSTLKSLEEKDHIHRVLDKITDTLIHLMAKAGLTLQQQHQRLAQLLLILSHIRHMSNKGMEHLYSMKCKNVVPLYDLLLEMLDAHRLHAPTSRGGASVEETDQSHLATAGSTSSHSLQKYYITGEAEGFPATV

[9] = biological target: T5, Heat shock factor protein 1 (Mus musculus, UniProt P38532); assay: HSF1 potentiators in luciferase reporter cells, confirmation, cell-based, NIH3T3, luminescence, dose retest (AID 435004); format: functional;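 also: stress induced by proteasome inhibitor MG132 added 30 min after compound; luciferase reporter driven by HSF1 response element in NIH3T3 cells; actives raise luminescence as potentiators of the MG132 stress response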
T5 sequence (P38532 whole entry): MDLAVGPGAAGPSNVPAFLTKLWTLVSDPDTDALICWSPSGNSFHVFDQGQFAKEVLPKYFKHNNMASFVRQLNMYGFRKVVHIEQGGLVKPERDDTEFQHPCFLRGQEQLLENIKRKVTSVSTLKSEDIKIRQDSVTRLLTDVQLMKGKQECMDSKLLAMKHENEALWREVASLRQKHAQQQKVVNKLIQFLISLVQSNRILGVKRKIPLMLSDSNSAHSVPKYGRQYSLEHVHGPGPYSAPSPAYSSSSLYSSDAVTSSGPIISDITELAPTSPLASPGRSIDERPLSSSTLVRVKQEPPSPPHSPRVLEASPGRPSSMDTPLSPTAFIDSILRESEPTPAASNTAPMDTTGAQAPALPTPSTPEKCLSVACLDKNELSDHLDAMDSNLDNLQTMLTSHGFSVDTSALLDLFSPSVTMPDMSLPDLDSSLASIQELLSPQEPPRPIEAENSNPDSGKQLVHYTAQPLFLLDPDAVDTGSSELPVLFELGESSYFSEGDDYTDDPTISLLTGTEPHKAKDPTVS

[10] = C. albicans growth with fluconazole, confirmation, fluorescence, retest (AID 2467); format: functional, cell-based
[11] = biological target: T6, Microphthalmia-associated transcription factor (Homo sapiens, UniProt O75030); assay: TRPM1 promoter luciferase signal decrease, dose response, MITF inhibitor project, cell-based, SK-MEL-5, cherry-picked, set 3 (AID 493073); format: functional
T6 sequence (O75030 whole entry): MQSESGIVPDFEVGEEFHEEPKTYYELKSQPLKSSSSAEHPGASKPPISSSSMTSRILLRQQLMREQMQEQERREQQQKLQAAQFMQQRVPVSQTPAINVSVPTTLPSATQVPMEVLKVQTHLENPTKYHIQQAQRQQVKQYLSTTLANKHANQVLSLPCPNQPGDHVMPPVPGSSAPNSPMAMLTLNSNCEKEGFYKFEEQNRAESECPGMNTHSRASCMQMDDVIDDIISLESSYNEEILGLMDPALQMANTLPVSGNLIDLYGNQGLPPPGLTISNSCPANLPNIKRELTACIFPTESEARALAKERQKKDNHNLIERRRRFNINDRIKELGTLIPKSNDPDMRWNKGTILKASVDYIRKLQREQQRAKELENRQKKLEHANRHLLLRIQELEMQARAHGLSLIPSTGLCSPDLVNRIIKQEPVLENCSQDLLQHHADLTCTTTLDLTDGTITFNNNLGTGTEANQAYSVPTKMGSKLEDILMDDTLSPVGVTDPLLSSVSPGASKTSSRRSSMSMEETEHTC

Jurkat = assay: antigen receptor-induced NF-kB inhibitors, dose response, Jurkat, luciferase reporter, luminescence, B- and T-cell (AID 489004); format: functional, cell-based; details: Homo sapiens;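 also: NF-kB luciferase reporter Jurkat cells stimulated with PMA plus ionomycin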
[12] = cytotoxicity toward NIH3T3 fibroblasts, dose response, counter-screen, cell-based, ATP luminescence, mouse fibroblasts (AID 2010); format: functional;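 also: cells exposed to compound for about 90 hours before reading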
[13] = NIH-3T3 fibroblast cytotoxicity, dose response, cytotoxicity control, cell-based, fluorescence, Alamar Blue, secondary assay (AID 2327); format: functional;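 also: NIH-3T3 mouse fibroblasts cultured with fluconazole at 8 µg/mL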
[14] = biological target: T7, COUP transcription factor 2 (Homo sapiens, UniProt P24468); assay: Luminescence-based cell-based high throughput dose response assay to identify inhibitors of COUP-TFII (NR2F2).; format: functional;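 also: HEK293 cells transiently cotransfected with COUP-TFII expression vector and reporter; luciferase reporter luminescence driven by COUP-TFII from the pX2-168 reporter plasmid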
T7 sequence (P24468 whole entry): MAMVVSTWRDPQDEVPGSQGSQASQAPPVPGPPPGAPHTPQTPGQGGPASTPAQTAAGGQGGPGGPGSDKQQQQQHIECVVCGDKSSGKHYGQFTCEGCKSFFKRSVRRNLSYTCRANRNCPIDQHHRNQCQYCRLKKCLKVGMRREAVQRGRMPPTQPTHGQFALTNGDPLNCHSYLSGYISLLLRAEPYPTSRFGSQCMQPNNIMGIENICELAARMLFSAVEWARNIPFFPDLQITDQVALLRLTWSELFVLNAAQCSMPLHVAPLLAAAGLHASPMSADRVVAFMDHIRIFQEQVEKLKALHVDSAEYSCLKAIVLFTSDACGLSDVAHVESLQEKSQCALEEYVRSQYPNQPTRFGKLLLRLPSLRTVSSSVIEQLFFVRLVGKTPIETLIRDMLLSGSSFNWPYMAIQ

[15] = inhibitors of intracellular T. cruzi replication, confirmation, NIH3T3 host cells, beta-gal luminescence (AID 2044); format: functional, cell-based;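 also: intracellular parasites grown in NIH/3T3 mouse fibroblasts as host cells; luminescent beta-galactosidase reporter signal from transgenic T. cruzi replicating inside host cells; inhibitors lower the luminescence signal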
INS1 = assay: beta cell apoptosis inhibitors, cytokine rescue, dose response, luminescence, retest (AID 449756); format: functional, cell-based; details: Rattus norvegicus;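 also: cell death triggered by IL-1 beta plus TNF-alpha plus IFN-gamma mixture; protective hits raise ATP signal compared with cytokine alone wells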
[16] = cytotoxicity in HEK-293T NF-kB-Luc cells, dose response, cytotoxicity control for B/T-cell NF-kB inhibitor project, cell-based, uHTS hits (AID 489019); format: functional;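 also: IC50 reflects cytotoxicity as loss of cell viability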
[17] = biological target: Luciferin 4-monooxygenase (Photinus pyralis, UniProt P08659); assay: firefly luciferase enzyme inhibitors, dose response, biochemical, luminescence (AID 1891)
[18] = Luminescence Cell-Based Dose Confirmation HTS to Identify Inhibitors of Platelet Dense Granule Release. [Related pubchem assays: 1663 (Primary HTS), 1678 (Summary of Project)]; format: functional

Chain of Sphingosine 1-phosphate receptor 2 (O95136 whole entry): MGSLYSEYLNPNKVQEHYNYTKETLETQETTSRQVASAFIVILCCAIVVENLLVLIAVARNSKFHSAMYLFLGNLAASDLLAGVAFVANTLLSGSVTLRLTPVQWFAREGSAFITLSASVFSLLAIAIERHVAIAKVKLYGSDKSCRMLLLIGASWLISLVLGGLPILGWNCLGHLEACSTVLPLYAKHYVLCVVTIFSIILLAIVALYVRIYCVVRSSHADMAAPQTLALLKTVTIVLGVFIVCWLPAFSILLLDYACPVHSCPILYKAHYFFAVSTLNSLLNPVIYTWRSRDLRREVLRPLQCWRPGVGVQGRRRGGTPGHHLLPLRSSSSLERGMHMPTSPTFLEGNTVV
Chain of FAD-linked sulfhydryl oxidase ALR (P55789 whole entry): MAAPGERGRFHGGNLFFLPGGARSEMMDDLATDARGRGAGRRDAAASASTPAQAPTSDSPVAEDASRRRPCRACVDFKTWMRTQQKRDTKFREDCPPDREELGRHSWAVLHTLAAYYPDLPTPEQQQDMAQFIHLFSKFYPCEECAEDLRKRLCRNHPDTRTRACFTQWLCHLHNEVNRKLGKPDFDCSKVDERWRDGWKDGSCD
Chain of Luciferin 4-monooxygenase (P08659 whole entry): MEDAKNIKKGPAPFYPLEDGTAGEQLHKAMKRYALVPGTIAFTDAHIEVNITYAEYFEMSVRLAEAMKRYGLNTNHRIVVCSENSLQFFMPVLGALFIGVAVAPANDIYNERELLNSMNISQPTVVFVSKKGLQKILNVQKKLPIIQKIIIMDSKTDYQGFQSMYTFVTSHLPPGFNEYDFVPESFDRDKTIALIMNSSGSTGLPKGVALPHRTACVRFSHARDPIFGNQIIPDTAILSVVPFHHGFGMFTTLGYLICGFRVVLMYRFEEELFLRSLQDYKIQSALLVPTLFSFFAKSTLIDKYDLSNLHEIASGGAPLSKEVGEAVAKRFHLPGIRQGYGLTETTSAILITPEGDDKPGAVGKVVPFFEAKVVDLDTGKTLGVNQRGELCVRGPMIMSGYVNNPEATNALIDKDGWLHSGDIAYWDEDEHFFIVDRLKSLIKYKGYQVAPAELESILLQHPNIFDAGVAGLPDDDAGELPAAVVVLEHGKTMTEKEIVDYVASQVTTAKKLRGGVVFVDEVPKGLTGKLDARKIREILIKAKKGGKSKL

SMILES: CCC(C)NC(=O)c1c(N)n(Cc2ccc3c(c2)OCO3)c2nc3ccccc3nc12 (stereo unspecified)
- EC50 (Protein RecA): > 380 µM (inconclusive)
- EC50 [1]: 14.2 µM (active)
- EC50 [2]: 15.3 µM (active)
- EC50 [3]: 2.41 µM (active)

SMILES: CCOC(=O)/C=C/C(=O)Nc1nccs1
- IC50 [4]: > 100 µM (active)

SMILES: CC(C)CC1=NN2C(=N)/C(=C/c3c[nH]c4ccccc34)C(=O)N=C2S1
- EC50 [5]: 34.2 µM (inconclusive)
- EC50 [6]: 47.4 µM (active)
- IC50 [7]: 32.1 µM (active)

SMILES: Cc1cccc(C(=O)Nc2scc(CC(C)C)c2C(=O)O)c1
- IC50 [7]: 32.3 µM (active)
- AC50 [8]: 0.016 µM (active)

SMILES: COc1cc(-c2cc(C(=O)Nc3nc4ccccc4s3)c3ccccc3n2)cc(OC)c1OC
- IC50 [4]: > 100 µM (active)

SMILES: CC(=O)c1c(C)n(C)c2ccc(O)cc12
- IC50 [4]: > 100 µM (active)

SMILES: COc1ccc(/C=C/C(O)=C2/C(=O)N(C)C3(C)CC2c2ccccc2O3)cc1 (stereo unspecified)
- IC50 (Estrogen receptor): > 50 µM (not active)
- EC50 [9]: > 260 µM (inactive)
- EC50 [1]: 8.06 µM (active)
- EC50 [2]: 10.7 µM (active)

SMILES: COc1ccc2cc(S(=O)(=O)NCCCN3CCOCC3)ccc2c1
- EC50 [3]: > 50 µM (not active)

SMILES: CN(C)c1cc[n+](CC(=O)c2ccc(-c3ccccc3)cc2)cc1
- EC50 [10]: 2 µM (active)
- AC50 [11]: 2.6 µM (active)
- IC50 (Jurkat): 4.41 µM (active)
- EC50 [12]: > 60 µM (not active)
- EC50 [13]: > 160 µM (inactive)
- IC50 [14]: 10.2 µM (inactive)
- EC50 [15]: 0.515 µM (active)
- AC50 (INS1): 1.55 µM (active)
- IC50 [16]: > 80 µM (inactive)

SMILES: COC(=O)c1ccc2c(=O)n(CC3CCCO3)c(SCC(=O)Nc3ccccc3Cl)nc2c1 (stereo unspecified)
- IC50 (Estrogen receptor): 20.9 µM (active)

SMILES: COC(=O)c1oc2ccc(Br)cc2c1NC(=O)CCCN1C(=O)c2ccccc2C1=O
- IC50 (Estrogen receptor): 42.3 µM (not active)

SMILES: O=C1CCCC(=O)C1=CNCCc1ccccc1
- EC50 [17]: > 112 µM (not active)
- EC50 [3]: > 50 µM (not active)
- EC50 [18]: > 112 µM (not active)
